Results: patent publication US11306071B2, “Heterocyclic compounds as adenosine antagonists” (Nuvation Bio Inc., priority 2019, dated 2022)

Key:
[1] = target: adenosine A2a (human) membrane (Homo sapiens (Human), UniProt P29274); test: A2A adenosine receptor radioligand binding assay ([3H] CGS-21680); settings: radioligand [3H] CGS-21680 6 nM
Experimental: A second A2A adenosine receptor radioligand binding assay protocol was used. The protocol used adenosine A2a (human) membrane (PerkinElmer RBHA2AM400UA) at a concentration of 5 μg/well/100 μl and the radioligand [3H] CGS-21680 (Cat No. PerkinElmer-NET1021250UC) at a final concentration of 6 nM. Testing compounds were diluted with DMSO to make 8-point 4-fold serial dilution, starting at 0.2 mM. CGS-15943 was the reference compound. 1 μl of compounds/high control/low control was transferred to the assay plate according to a plate map, followed by 100 μl of membrane stocks and 100 μl of radioligand, in assay buffer (50 mM Tris-HCl, 10 mM MgCl2, 1 mM EDTA, pH 7.4). The plate was sealed and incubated at RT for 2 hours. Unifilter-96 GF/C filter plates (Perkin Elmer Cat #6005174) were soaked with 50 μl of 0.3% PEI per well for at least 0.5 hour at room temperature. When the binding assays were completed, the reaction mixtures were filtered through GF/C plates using Perkin Elmer Filtermate Harvester, and each plate washed 4 times with cold wash buffer (50 mM Tris-HCl, 154 mM NaCl, pH 7.4). The filter plates were dried for 1 hour at 50 degrees. After drying, the bottom of the filter plate wells was sealed, 50 μl of Perkin Elmer Microscint 20 cocktail was added, and the top of the filter plate was sealed. ^3H trapped on the filter was counted using Perkin Elmer MicroBeta2 Reader. The data were analyzed with GraphPad Prism 5 to obtain binding IC50 values. The “Inhibition [% Control]” was calculated using the equation: % Inh=(1-Background subtracted Assay value/Background subtracted HC value)*100, where HC is high control.

[2] = target: HEK-293 cells expressing human recombinant adenosine A2A receptor (Homo sapiens (Human), UniProt P29274); test: cAMP assay (Assay 2), A2A receptor; type: cell-based
HEK-293 cells expressing human recombinant adenosine A2A receptor, sequence (P29274 whole entry): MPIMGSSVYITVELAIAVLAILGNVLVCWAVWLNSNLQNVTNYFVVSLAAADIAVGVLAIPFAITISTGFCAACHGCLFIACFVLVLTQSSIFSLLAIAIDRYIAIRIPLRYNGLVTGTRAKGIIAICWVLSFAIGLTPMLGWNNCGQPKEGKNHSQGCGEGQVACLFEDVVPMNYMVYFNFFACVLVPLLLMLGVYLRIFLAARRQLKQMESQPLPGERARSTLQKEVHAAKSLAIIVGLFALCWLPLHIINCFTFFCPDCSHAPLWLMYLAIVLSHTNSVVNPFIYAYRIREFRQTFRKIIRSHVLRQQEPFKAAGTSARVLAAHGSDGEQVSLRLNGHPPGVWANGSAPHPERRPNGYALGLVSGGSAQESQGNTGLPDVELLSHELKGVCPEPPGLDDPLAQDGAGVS
Experimental: (§1) The functional activity of compounds was tested using Assay 2, below, to detect the presence of cAMP. Assay 1 is an alternative assay for this purpose. Activation of G-protein coupled receptors (such as A2A) results in activation of adenylyl cyclase which converts ATP into cAMP which is used as a downstream signaling molecule. Therefore, molecules which act as GPCR (or specifically A2A receptor) antagonists cause a decrease in intracellular cAMP concentration.
(§2) Assay 2 (Table B2): This assay used HEK-293 cells expressing human recombinant adenosine A2A receptor (or, alternatively, A1 receptor) that were grown prior to the test in media without antibiotic. 100 nL of test articles at 100x of final concentration were transferred to assay plate by Echo. Cells were washed twice with 5 mL of PBS and 10 μL of cells were mixed with 5 mL PBS. After aspirating the PBS and adding 1.5 mL versine, cells were incubated at 37° C. for 2-5 min. After centrifugation, 4 mL of medium was added and adjusted cell density to 5,000 cells/well with Stimulation Buffer. 10 μL of cells were aliquoted to the assay plate, centrifuged at 1000 rpm for 1 minute, and incubated for 60 minutes at room temperature. 5 μL 4× Eu-cAMP tracer solution and 5 μL 4× Ulight™-anti-cAMP solution were added to assay plate, followed by centrifugation and 60-minute incubation at room temperature. Plates were read on EnVision.

[3] = target: adenosine A1 (human) membrane (Homo sapiens (Human), UniProt P30542); test: A1 adenosine receptor radioligand binding assay ([3H] DPCPX); settings: 200 nM compound; radioligand [3H] DPCPX 1 nM
adenosine A1 (human) membrane, sequence (P30542 whole entry): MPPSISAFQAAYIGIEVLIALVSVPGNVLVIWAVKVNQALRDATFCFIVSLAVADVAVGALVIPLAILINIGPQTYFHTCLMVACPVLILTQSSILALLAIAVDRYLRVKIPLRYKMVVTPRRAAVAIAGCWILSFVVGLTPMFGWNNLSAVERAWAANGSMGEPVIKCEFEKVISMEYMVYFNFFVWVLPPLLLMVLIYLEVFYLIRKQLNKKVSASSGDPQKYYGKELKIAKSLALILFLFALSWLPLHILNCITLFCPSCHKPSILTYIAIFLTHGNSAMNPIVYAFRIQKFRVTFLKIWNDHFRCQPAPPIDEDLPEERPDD
Experimental: A second A1 adenosine receptor radioligand binding assay protocol was used. The protocol used adenosine A1 (human) membrane (PerkinElmer ES-010-M400UA) at a concentration of 2.5 μg/well/100 μl and the radioligand [3H] DPCPX (Cat No. PerkinElmer-NET974250UC) at a final concentration of 1 nM. Testing compounds were tested at a final concentration of 200 nM. CGS-15943, the reference compound, was tested in an 8-point 4-fold serial dilution, starting at a top concentration of 1 μM. 1 μl of compounds/high control/low control was transferred to the assay plate according to a plate map, followed by 100 μl of membrane stocks and 100 μl of radioligand, in assay buffer (25 mM HEPES, 5 mM MgCl2, 1 mM CaCl2, 100 mM NaCl, pH 7.4). The plate was sealed and incubated at RT for 1 hour. Unifilter-96 GF/C filter plates (Perkin Elmer Cat #6005174) were soaked with 50 μl of 0.3% PEI per well for at least 0.5 hour at room temperature. When the binding assays were completed, the reaction mixtures were filtered through GF/C plates using Perkin Elmer Filtermate Harvester, and each plate washed 4 times with cold wash buffer (25 mM HEPES, 5 mM MgCl2, 1 mM CaCl2, 100 mM NaCl, pH 7.4). The filter plates were dried for 1 hour at 50 degrees. After drying, the bottom of the filter plate wells was sealed, 50 μl of Perkin Elmer Microscint 20 cocktail was added, and the top of the filter plate was sealed. ^3H trapped on the filter was counted using Perkin Elmer MicroBeta2 Reader. The data were analyzed with GraphPad Prism 5 to obtain binding IC50 values for the reference compound. The “Inhibition [% Control]” was calculated using the equation: % Inh=(1-Background subtracted Assay value/Background subtracted HC value)*100, where HC is high control.

[4] = target: HEK-293 cells expressing human recombinant adenosine A1 receptor (Homo sapiens (Human), UniProt P30542); test: cAMP assay (Assay 2), A1 receptor; type: cell-based
HEK-293 cells expressing human recombinant adenosine A1 receptor, sequence (P30542 whole entry): as above
Experimental: as §1, §2

adenosine A2a (human) membrane, sequence (P29274 whole entry): as the sequence (P29274 whole entry) above

SMILES | IC50 [1] [nM] | IC50 [2] [nM] | inhibition at 0.2 µM [3] [%] | IC50 [4] [nM]
C[C@@H](NC(=O)c1nc(-c2ccc3ncccc3c2)c(-c2ccccc2)nc1N)c1ncccn1 [Compound No. 125, (R)-3-amino-5-phenyl-N-(1-(pyrimidin-2-yl)ethyl)-6-(quinolin-6-yl)pyrazine-2-carboxamide] | 1.2 | 27 | – | –
C[C@H](NC(=O)c1nc(-c2cc(Cl)c3ncccc3c2)c(-c2ccccc2)nc1N)c1cccc(C#N)n1 [Compound No. 122, (S)-3-amino-6-(8-chloroquinolin-6-yl)-N-(1-(6-cyanopyridin-2-yl)ethyl)-5-phenylpyrazine-2-carboxamide] | < 0.6 | 33 | 96 | –
CC(NC(=O)c1nc(-c2cc(Cl)c3ncccc3c2)c(-c2ccc(F)cc2)nc1N)c1cccc(C#N)n1 (stereo not shown) [Compound No. 102, 3-amino-6-(8-chloroquinolin-6-yl)-N-(1-(6-cyanopyridin-2-yl)ethyl)-5-(4-fluorophenyl)pyrazine-2-carboxamide] | 1.9 | 143 | 93 | 24
N#Cc1cccc(CNC(=O)c2nc(-c3ccc4ncccc4c3)c(-c3ccccc3)nc2N)n1 [compound 98, 3-amino-N-((6-cyanopyridin-2-yl)methyl)-5-phenyl-6-(quinolin-6-yl)pyrazine-2-carboxamide] | 0.8 | 18 | 92 | 11
C[C@@H](NC(=O)c1nc(-c2ccc3ncccc3c2)c(-c2ccn(C)n2)nc1N)c1ccccn1 [Compound No. 110, (R)-3-amino-5-(1-methyl-1H-pyrazol-3-yl)-N-(1-(pyridin-2-yl)ethyl)-6-(quinolin-6-yl)pyrazine-2-carboxamide] | 2.9 | 75 | 38 | –
C[C@@H](NC(=O)c1nc(-c2ccc3ncccc3c2)c(-c2ccccc2)nc1N)c1ccccn1 [compound 76, (R)-3-amino-5-phenyl-N-(1-(pyridin-2-yl)ethyl)-6-(quinolin-6-yl)pyrazine-2-carboxamide] | 3.4 | 24 | 45 | 804
N#Cc1cccc(-c2nc(N)cnc2-c2cc(Cl)c3ncccc3c2)c1F [2-10, 3-(6-amino-3-(8-chloroquinolin-6-yl)pyrazin-2-yl)-2-fluorobenzonitrile] | 3.1 | 39 | 79 | 27
C[C@H](NC(=O)c1nc(-c2ccc3ncccc3c2)c(-c2ccccc2)nc1N)c1ncccn1 [Compound No. 126, (S)-3-amino-5-phenyl-N-(1-(pyrimidin-2-yl)ethyl)-6-(quinolin-6-yl)pyrazine-2-carboxamide] | 1.8 | 110 | 41 | –
C[C@@H](NC(=O)c1nc(-c2cc(Cl)c3ncccc3c2)c(-c2ccn(C)n2)nc1N)c1ccccn1 [Compound No. 100, (R)-3-amino-6-(8-chloroquinolin-6-yl)-5-(1-methyl-1H-pyrazol-3-yl)-N-(1-(pyridin-2-yl)ethyl)pyrazine-2-carboxamide] | 1.6 | 28 | 70 | 22
C[C@@H](NC(=O)c1nc(-c2cc(Cl)c3ncccc3c2)c(-c2ccc(F)cc2)nc1N)c1ccccn1 [compound 106, (R)-3-amino-6-(8-chloroquinolin-6-yl)-5-(4-fluorophenyl)-N-(1-(pyridin-2-yl)ethyl)pyrazine-2-carboxamide] | – | 165 | 34 | –
Nc1nc(-c2ccc(F)cc2)c(-c2cc(Cl)c3ncccc3c2)nc1C(=O)NCCC1CCOCC1 [Compound No. 101, 3-amino-6-(8-chloroquinolin-6-yl)-5-(4-fluorophenyl)-N-(2-(tetrahydro-2H-pyran-4-yl)ethyl)pyrazine-2-carboxamide] | – | 238 | 66 | –
N#Cc1cccc(CNC(=O)c2nc(-c3cc(Cl)c4ncccc4c3)c(-c3ccc(F)cc3)nc2N)n1 [Compound No. 105, 3-amino-6-(8-chloroquinolin-6-yl)-N-((6-cyanopyridin-2-yl)methyl)-5-(4-fluorophenyl)pyrazine-2-carboxamide] | 1.2 | 48 | 94 | 10
C[C@H](NC(=O)c1nc(-c2ccc3ncccc3c2)c(-c2ccccc2)nc1N)c1ccccn1 [compound 75, (S)-3-amino-5-phenyl-N-(1-(pyridin-2-yl)ethyl)-6-(quinolin-6-yl)pyrazine-2-carboxamide] | 2.5 | 25 | 63 | 219
Cc1c(C#N)cccc1-c1nc(N)cnc1-c1cc(Cl)c2ncccc2c1 [2-2, 3-(6-amino-3-(8-chloroquinolin-6-yl)pyrazin-2-yl)-2-methylbenzonitrile] | – | 327 | 30 | –
CCN(CC)CCNC(=O)c1nc(-c2ccc3ncccc3c2)c(-c2ccccc2)nc1N [compound 107, 3-amino-N-(2-(diethylamino)ethyl)-5-phenyl-6-(quinolin-6-yl)pyrazine-2-carboxamide] | – | 191 | 49 | –
CC(C)(NC(=O)c1nc(-c2ccc3ncccc3c2)c(-c2ccccc2)nc1N)c1ccccn1 [compound 108, 3-amino-5-phenyl-N-(2-(pyridin-2-yl)propan-2-yl)-6-(quinolin-6-yl)pyrazine-2-carboxamide] | 1.3 | 55 | 47 | 326
C[C@@H](NC(=O)c1nc(-c2cc(Cl)c3[nH]ncc3c2)c(-c2ccc(F)cc2)nc1N)c1ccccn1 [Compound No. 104, (R)-3-amino-6-(7-chloro-1H-indazol-5-yl)-5-(4-fluorophenyl)-N-(1-(pyridin-2-yl)ethyl)pyrazine-2-carboxamide] | 0.9 | 76 | 68 | 117
N#Cc1cccc(-c2nc(N)cnc2-c2cc(Cl)c3ncccc3c2)c1 [Compound No. 2-6, 3-(6-amino-3-(8-chloroquinolin-6-yl)pyrazin-2-yl)benzonitrile] | 3.7 | 44 | 90 | 5
Nc1nc(-c2ccccc2)c(-c2ccc3ncccc3c2)nc1C(=O)NCCC1CCOCC1 [compound 89, 3-amino-5-phenyl-6-(quinolin-6-yl)-N-(2-(tetrahydro-2H-pyran-4-yl)ethyl)pyrazine-2-carboxamide] | 16 | 58 | – | –
